In patent US12391913B2, “Lactiplantibacillus plantarum strain for alleviating hyperuricemia and combination and use thereof” (Northeast Agricultural University, priority 2023, dated 2025):

Assays:
Assay type in all cases: in vivo, Wistar rats
[1] = test system: potassium oxonate and xanthine-induced hyperuricemic rats; assay: urinary uric acid level in hyperuricemic rats; settings: oral gavage once daily for 14 days, vs model group (group B)
Method: (§1) 48 healthy specific pathogen-free (SPF) male Wistar rats (7 weeks, body weight: (200±20) g) were selected. In order to acclimate to a new environment, the 48 male rats were maintained in the animal house with the temperature of 22° C., the humidity of 10% to 60%, and 12 h/12 h light/dark cycle, and fed with standard diet and water ad libitum for 1 week. After the 1 week of acclimating, all experimental rats were randomly assigned to the following 6 groups with 8 rats per group: a control group (group A), a model group (group B), a Lactiplantibacillus plantarum strain BL-17 treated group (group C), a galacto-oligosaccharide-adenylic acid treated group (group D), a combination treated group (group E), and an allopurinol intervention treated group (positive control) (group F). […]

[2] = test system: potassium oxonate and xanthine-induced hyperuricemic rats; assay: serum creatinine levels in hyperuricemic rats; settings: oral gavage once daily for 14 days, vs model group
Method: as §1
(§2) At the late stage of the experiment, fresh feces of the rats were collected and frozen in a −80° C. refrigerator. […] After being collected, the liver tissue was immediately rinsed with pre-cooled normal saline to remove blood, rapidly frozen in liquid nitrogen and then frozen at −80° C., and subsequently homogenized into liver homogenate, and then relevant indicators were determined. […]

[3] = test system: potassium oxonate and xanthine-induced hyperuricemic rats; assay: serum uric acid levels in hyperuricemic rats; settings: oral gavage once daily for 14 days, vs model group (group B)
Method: as §1, §2

XOD = assay: activity of XOD in serum and liver tissues of hyperuricemic rats; settings: oral gavage once daily for 14 days, vs model group
Method: as §1, §2

What does the source list for `Oc1ncnc2[nH]ncc12` [allopurinol]?
urinary uric acid levels compared with model group [1]: decrease to urinary uric acid levels in rats of the control group; serum creatinine levels compared with hyperuricemia model group [2]: decrease; serum uric acid concentration compared with model group [3]: decrease; activities of XOD in serum and liver compared with model group (XOD): decrease to varying degrees
